Measured values from patent publication US20260078122A1, “INDAZOLE COMPOUNDS AS PKMYT1 KINASE INHIBITORS” (Hoffmann-La Roche Inc., priority 2023, published 2026).

Biological target: T1, recombinant human Myt1 (full length PKMYT1) (Homo sapiens, UniProt Q99640)
T1 sequence (Q99640 1-499): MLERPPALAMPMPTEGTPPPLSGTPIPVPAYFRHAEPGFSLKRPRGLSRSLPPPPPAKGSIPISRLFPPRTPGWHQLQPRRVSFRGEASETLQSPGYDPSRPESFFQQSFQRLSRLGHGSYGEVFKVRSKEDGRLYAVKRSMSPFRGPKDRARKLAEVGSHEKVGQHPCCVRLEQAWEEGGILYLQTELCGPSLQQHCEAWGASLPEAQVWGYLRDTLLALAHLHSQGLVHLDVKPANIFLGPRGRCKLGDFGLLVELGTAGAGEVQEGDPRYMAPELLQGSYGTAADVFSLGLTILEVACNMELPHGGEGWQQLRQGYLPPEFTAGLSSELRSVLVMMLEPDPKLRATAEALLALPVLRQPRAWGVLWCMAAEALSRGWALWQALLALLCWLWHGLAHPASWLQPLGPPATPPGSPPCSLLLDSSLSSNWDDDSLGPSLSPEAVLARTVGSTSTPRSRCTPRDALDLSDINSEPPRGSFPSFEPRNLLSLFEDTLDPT
Assay: ADP-Glo assay (Myt1 kinase activity)

Row | Structure (SMILES) | IC50 [nM]
1 | Cc1c(Br)cnc2c(-c3ccc(F)c4[nH]ncc34)c(N)c(=O)[nH]c12 [Example 115, 3-Amino-7-bromo-4-(7-fluoro-1H-indazol-4-yl)-8-methyl-1H-1,5-naphthyridin-2-one] | < 10
2 | Cc1c(I)cnc2c(-c3ccc(F)c4[nH]ncc34)c(N)c(=O)[nH]c12 [Example 116, 3-Amino-4-(7-fluoro-1H-indazol-4-yl)-7-iodo-8-methyl-1H-1,5-naphthyridin-2-one] | < 10
3 | Cc1c(C2CCC2)cnc2c(-c3ccc(F)c4[nH]ncc34)c(N)c(=O)[nH]c12 [Example 119, 3-Amino-7-cyclobutyl-4-(7-fluoro-1H-indazol-4-yl)-8-methyl-1H-1,5-naphthyridin-2-one] | 13
4 | Cc1c(-c2nccs2)cnc2c(-c3ccc(F)c4[nH]ncc34)c(N)c(=O)[nH]c12 [Example 121, 3-Amino-4-(7-fluoro-1H-indazol-4-yl)-8-methyl-7-thiazol-2-yl-1H-1,5-naphthyridin-2-one] | 10.7
5 | C=Cc1cnc2c(-c3ccc(F)c4[nH]ncc34)c(N)c(=O)[nH]c2c1C [Example 123, 3-Amino-4-(7-fluoro-1H-indazol-4-yl)-8-methyl-7-vinyl-1H-1,5-naphthyridin-2-one] | < 10
6 | C=C(C)c1cnc2c(-c3ccc(F)c4[nH]ncc34)c(N)c(=O)[nH]c2c1C [Example 125, 3-Amino-4-(7-fluoro-1H-indazol-4-yl)-7-isopropenyl-8-methyl-1H-1,5-naphthyridin-2-one] | < 10
7 | Cc1c(C2CCCC2)cnc2c(-c3ccc(F)c4[nH]ncc34)c(N)c(=O)[nH]c12 [Example 126, 3-Amino-7-cyclopentyl-4-(7-fluoro-1H-indazol-4-yl)-8-methyl-1H-1,5-naphthyridin-2-one] | < 10
8 | Cc1c(C2(C)CC2)cnc2c(-c3ccc(F)c4[nH]ncc34)c(N)c(=O)[nH]c12 [Example 129, 3-Amino-4-(7-fluoro-1H-indazol-4-yl)-8-methyl-7-(1-methylcyclopropyl)-1H-1,5-naphthyridin-2-one] | 12.8
9 | Cc1c(C2CC2(C)C)cnc2c(-c3ccc(F)c4[nH]ncc34)c(N)c(=O)[nH]c12 (stereo not drawn) [Example 130, 3-Amino-7-(2,2-dimethylcyclopropyl)-4-(7-fluoro-1H-indazol-4-yl)-8-methyl-1H-1,5-naphthyridin-2-one] | 12.3
10 | Cc1c(CC2CC2)cnc2c(-c3ccc(F)c4[nH]ncc34)c(N)c(=O)[nH]c12 [Example 131, 3-Amino-7-(cyclopropylmethyl)-4-(7-fluoro-1H-indazol-4-yl)-8-methyl-1H-1,5-naphthyridin-2-one] | 17.5
11 | Cc1c(C2CC2F)cnc2c(-c3ccc(F)c4[nH]ncc34)c(N)c(=O)[nH]c12 (stereo not drawn) [Example 132, 3-Amino-7-(2-fluorocyclopropyl)-4-(7-fluoro-1H-indazol-4-yl)-8-methyl-1H-1,5-naphthyridin-2-one] | < 10
12 | Cc1c(F)cnc2c(-c3ccc(F)c4[nH]ncc34)c(N)c(=O)[nH]c12 [Example 135, 3-Amino-7-fluoro-4-(7-fluoro-1H-indazol-4-yl)-8-methyl-1H-1,5-naphthyridin-2-one] | 14
13 | Cc1c(OCC(F)(F)F)cnc2c(-c3ccc(F)c4[nH]ncc34)c(N)c(=O)[nH]c12 [Example 137, 3-Amino-4-(7-fluoro-1H-indazol-4-yl)-8-methyl-7-(2,2,2-trifluoroethoxy)-1H-1,5-naphthyridin-2-one] | 14.1
14 | Cc1c(OC(C)C)cnc2c(-c3ccc(F)c4[nH]ncc34)c(N)c(=O)[nH]c12 [Example 138, 3-Amino-4-(7-fluoro-1H-indazol-4-yl)-7-isopropoxy-8-methyl-1H-1,5-naphthyridin-2-one] | 14.2
15 | Cc1c(OC2CCC2)cnc2c(-c3ccc(F)c4[nH]ncc34)c(N)c(=O)[nH]c12 [Example 139, 3-Amino-7-(cyclobutoxy)-4-(7-fluoro-1H-indazol-4-yl)-8-methyl-1H-1,5-naphthyridin-2-one] | 13.2
16 | CCOc1cnc2c(-c3ccc(F)c4[nH]ncc34)c(N)c(=O)[nH]c2c1C [Example 140, 3-Amino-7-ethoxy-4-(7-fluoro-1H-indazol-4-yl)-8-methyl-1H-1,5-naphthyridin-2-one] | 11.8
17 | CSc1cnc2c(-c3ccc(F)c4[nH]ncc34)c(N)c(=O)[nH]c2c1C [Example 141, 3-Amino-4-(7-fluoro-1H-indazol-4-yl)-8-methyl-7-methylsulfanyl-1H-1,5-naphthyridin-2-one] | 10.4
18 | Cc1cnc2c(-c3ccc(F)c4[nH]ncc34)c(N)c(=O)[nH]c2c1C(F)F [Example 145, 3-Amino-8-(difluoromethyl)-4-(7-fluoro-1H-indazol-4-yl)-7-methyl-1H-1,5-naphthyridin-2-one] | 18.5

Row | Structure (SMILES) | IC50 [nM]
19 | Cc1cc(C#CC(C)(C)O)nc2c(-c3ccc(F)c4[nH]ncc34)c(N)c(=O)[nH]c12 [Example 148, 3-Amino-4-(7-fluoro-1H-indazol-4-yl)-6-(3-hydroxy-3-methyl-but-1-ynyl)-8-methyl-1H-1,5-naphthyridin-2-one] | < 10
20 | COC(C)(C)C#Cc1cc(C)c2[nH]c(=O)c(N)c(-c3ccc(F)c4[nH]ncc34)c2n1 [Example 149, 3-Amino-4-(7-fluoro-1H-indazol-4-yl)-6-(3-methoxy-3-methyl-but-1-ynyl)-8-methyl-1H-1,5-naphthyridin-2-one] | < 10
21 | Cc1cc(C#CC2COC2)nc2c(-c3ccc(F)c4[nH]ncc34)c(N)c(=O)[nH]c12 [Example 150, 3-Amino-4-(7-fluoro-1H-indazol-4-yl)-8-methyl-6-[2-(oxetan-3-yl)ethynyl]-1H-1,5-naphthyridin-2-one] | 15.2
22 | Cc1cc2[nH]c(=O)c(N)c(-c3ccc(F)c4[nH]ncc34)c2nc1-c1cccs1 [Example 151, 3-Amino-4-(7-fluoro-1H-indazol-4-yl)-7-methyl-6-(2-thienyl)-1H-1,5-naphthyridin-2-one] | 13
23 | Cc1cc2[nH]c(=O)c(N)c(-c3ccc(F)c4[nH]ncc34)c2nc1-c1cscn1 [Example 152, 3-Amino-4-(7-fluoro-1H-indazol-4-yl)-7-methyl-6-thiazol-4-yl-1H-1,5-naphthyridin-2-one] | 13.8
24 | Cc1cc2[nH]c(=O)c(N)c(-c3ccc(F)c4[nH]ncc34)c2nc1-c1nccs1 [Example 153, 3-Amino-4-(7-fluoro-1H-indazol-4-yl)-7-methyl-6-thiazol-2-yl-1H-1,5-naphthyridin-2-one] | 11.8
25 | Cc1cc2[nH]c(=O)c(N)c(-c3ccc(F)c4[nH]ncc34)c2nc1-c1ncco1 [Example 154, 3-Amino-4-(7-fluoro-1H-indazol-4-yl)-7-methyl-6-oxazol-2-yl-1H-1,5-naphthyridin-2-one] | < 10
26 | Cc1cc2[nH]c(=O)c(N)c(-c3ccc(F)c4[nH]ncc34)c2nc1-c1ccccn1 [Example 155, 3-Amino-4-(7-fluoro-1H-indazol-4-yl)-7-methyl-6-(2-pyridyl)-1H-1,5-naphthyridin-2-one] | 14.7
27 | CCc1nc2c(-c3ccc(F)c4[nH]ncc34)c(N)c(=O)[nH]c2cc1C [Example 157, 3-Amino-6-ethyl-4-(7-fluoro-1H-indazol-4-yl)-7-methyl-1H-1,5-naphthyridin-2-one] | 15.6
28 | Cc1cc2[nH]c(=O)c(N)c(-c3ccc(Cl)c4[nH]ncc34)c2nc1C [Example 159, 3-Amino-4-(7-chloro-1H-indazol-4-yl)-6,7-dimethyl-1H-1,5-naphthyridin-2-one] | < 10
29 | Cc1c(C2CC2)nc(Cl)c2c(-c3ccc(F)c4[nH]ncc34)c(N)c(=O)[nH]c12 [Example 162, 3-Amino-5-chloro-7-cyclopropyl-4-(7-fluoro-1H-indazol-4-yl)-8-methyl-1H-1,6-naphthyridin-2-one] | < 10
30 | Cc1c(C2CC2)ncc2c(-c3ccc(F)c4[nH]ncc34)c(N)c(=O)[nH]c12 [Example 165, 3-amino-7-cyclopropyl-4-(7-fluoro-1H-indazol-4-yl)-8-methyl-1H-1,6-naphthyridin-2-one] | < 10
31 | Nc1c(-c2ccc(F)c3[nH]ncc23)c2c(OC(F)F)nc(C3CC3)cc2[nH]c1=O [Example 168, 3-Amino-7-cyclopropyl-5-(difluoromethoxy)-4-(7-fluoro-1H-indazol-4-yl)-1H-1,6-naphthyridin-2-one] | 11.2
32 | COc1nc(C2CC2)cc2[nH]c(=O)c(N)c(-c3ccc(F)c4[nH]ncc34)c12 [Example 169, 3-Amino-7-cyclopropyl-4-(7-fluoro-1H-indazol-4-yl)-5-methoxy-1H-1,6-naphthyridin-2-one] | 13.4
33 | COc1ncc(F)c2[nH]c(=O)c(N)c(-c3ccc(F)c4[nH]ncc34)c12 [Example 170, 3-amino-8-fluoro-4-(7-fluoro-1H-indazol-4-yl)-5-methoxy-1H-1,6-naphthyridin-2-one] | 12.6
34 | COc1ncc(Cl)c2[nH]c(=O)c(N)c(-c3ccc(F)c4[nH]ncc34)c12 [Example 171, 3-Amino-8-chloro-4-(7-fluoro-1H-indazol-4-yl)-5-methoxy-1H-1,6-naphthyridin-2-one] | 15.8
35 | COc1c(C)nc(C)c2[nH]c(=O)c(N)c(-c3ccc(F)c4[nH]ncc34)c12 [Example 174, 3-Amino-4-(7-fluoro-1H-indazol-4-yl)-5-methoxy-6,8-dimethyl-1H-1,7-naphthyridin-2-one] | 12.7
36 | Cc1nc(Cl)cc2c(-c3ccc(F)c4[nH]ncc34)c(N)c(=O)[nH]c12 [Example 175, 3-Amino-6-chloro-4-(7-fluoro-1H-indazol-4-yl)-8-methyl-1H-1,7-naphthyridin-2-one] | < 10
